The source made the active and inactive calls. No cut-off for these calls is given here.
Experiments:
A549 = test: Cytotoxicity against human A549 cells assessed as reduction in cell proliferation measured after 72 hrs by MTT assay; assay type: functional, cell-based; conditions: A549, 72 h
HT-29 [1] = test: Cytotoxicity against human HT-29 cells assessed as reduction in cell proliferation measured after 72 hrs by MTT assay; assay type: functional, cell-based; conditions: HT-29, 72 h
HT-29 [2] = test: Induction of apoptosis in human HT-29 cells assessed as early apoptotic cells at 0.3 ug/ml measured after 24 hrs by Annexin V-FITC/propidium iodide staining based FACS analysis (reference value: 4.9%); assay type: functional
HT-29 [3] = test: Antiproliferative activity against human HT-29 cells assessed as reduction in cell proliferation at 10 ug/ml after 72 hrs by phase contrast microscopy; assay type: functional, cell-based
HT-29 [4] = test: Antimigratory activity against human HT-29 cells assessed as reduction in cell migration at 3.33 ug/ml measured every hour for 72 hrs by IncuCyte real-time cell imaging analysis; assay type: functional, cell-based
[5] = biological target: Epidermal growth factor receptor (Homo sapiens, UniProt P00533); test: Inhibition of EGFR (unknown origin) using FAM-labelled peptide as substrate measured after 10 mins by mobility shift assay
HT-29 [6] = test: Induction of apoptosis in human HT-29 cells assessed as early apoptotic cells at 3 ug/ml measured after 24 hrs by Annexin V-FITC/propidium iodide staining based FACS analysis (reference value: 4.9%); assay type: functional
HT-29 [7] = test: Antiproliferative activity against human HT-29 cells assessed as increase in dead cell population at 10 ug/ml measured after 14 hrs by IncuCyte live-cell imaging analysis; assay type: functional, cell-based
HT-29 [8] = test: Antimigratory activity against human HT-29 cells assessed as reduction in cell migration at 3.33 ug/ml measured every hour for 48 hrs by IncuCyte real-time cell imaging analysis; assay type: functional, cell-based
HT-29 [9] = test: Antiproliferative activity against human HT-29 cells assessed as increase in dead cell population by IncuCyte live-cell imaging analysis; assay type: functional, cell-based
HT-29 [10] = test: Antiproliferative activity against human HT-29 cells assessed as reduction in cell proliferation by IncuCyte live-cell imaging analysis; assay type: functional, cell-based
HT-29 [11] = test: Ratio of test compound effect to cabozantinib effect for antiproliferative activity against human HT-29 cells assessed as increase in dead cell population measured after 14 hrs by IncuCyte live-cell imaging analysis; assay type: functional
HT-29 [12] = test: Antiproliferative activity against human HT-29 cells assessed as increase in dead cell population at 1.11 ug/ml measured after 66 hrs by IncuCyte live-cell imaging analysis; assay type: functional, cell-based
HT-29 [13] = test: Induction of apoptosis in human HT-29 cells assessed as early apoptotic cells at 5 ug/ml measured after 24 hrs by Annexin V-FITC/propidium iodide staining based FACS analysis (reference value: 4.9%); assay type: functional
[14] = biological target: Insulin-like growth factor 1 receptor (Homo sapiens, UniProt P08069); test: Inhibition of IGF1R (unknown origin) using FAM-labelled peptide as substrate measured after 10 mins by mobility shift assay
HT-29 [15] = test: Induction of apoptosis in human HT-29 cells assessed as early apoptotic cells at 1 ug/ml measured after 24 hrs by Annexin V-FITC/propidium iodide staining based FACS analysis (reference value: 4.9%); assay type: functional
HT-29 [16] = test: Antiproliferative activity against human HT-29 cells assessed as reduction in cell proliferation by phase contrast microscopy; assay type: functional, cell-based
HT-29 [17] = test: Induction of apoptosis in human HT-29 cells measured after 72 hrs by Annexin V-FITC/propidium iodide staining based FACS analysis; assay type: functional, cell-based
[18] = biological target: Vascular endothelial growth factor receptor 2 (Homo sapiens, UniProt P35968); test: Inhibition of VEGFR2 (unknown origin) using FAM-labelled peptide as substrate measured after 10 mins by mobility shift assay
[19] = biological target: Mast/stem cell growth factor receptor Kit (Homo sapiens, UniProt P10721); test: Inhibition of c-KIT (unknown origin) using FAM-labelled peptide as substrate measured after 10 mins by mobility shift assay
[20] = biological target: Proto-oncogene tyrosine-protein kinase Src (Homo sapiens, UniProt P12931); test: Inhibition of c-SRC (unknown origin) using FAM-labelled peptide as substrate measured after 10 mins by mobility shift assay
[21] = biological target: T1, Receptor-type tyrosine-protein kinase FLT3 (Homo sapiens, UniProt P36888); test: Inhibition of FLT3 (unknown origin) using FAM-labelled peptide as substrate measured after 10 mins by mobility shift assay
T1 sequence (P36888 whole entry): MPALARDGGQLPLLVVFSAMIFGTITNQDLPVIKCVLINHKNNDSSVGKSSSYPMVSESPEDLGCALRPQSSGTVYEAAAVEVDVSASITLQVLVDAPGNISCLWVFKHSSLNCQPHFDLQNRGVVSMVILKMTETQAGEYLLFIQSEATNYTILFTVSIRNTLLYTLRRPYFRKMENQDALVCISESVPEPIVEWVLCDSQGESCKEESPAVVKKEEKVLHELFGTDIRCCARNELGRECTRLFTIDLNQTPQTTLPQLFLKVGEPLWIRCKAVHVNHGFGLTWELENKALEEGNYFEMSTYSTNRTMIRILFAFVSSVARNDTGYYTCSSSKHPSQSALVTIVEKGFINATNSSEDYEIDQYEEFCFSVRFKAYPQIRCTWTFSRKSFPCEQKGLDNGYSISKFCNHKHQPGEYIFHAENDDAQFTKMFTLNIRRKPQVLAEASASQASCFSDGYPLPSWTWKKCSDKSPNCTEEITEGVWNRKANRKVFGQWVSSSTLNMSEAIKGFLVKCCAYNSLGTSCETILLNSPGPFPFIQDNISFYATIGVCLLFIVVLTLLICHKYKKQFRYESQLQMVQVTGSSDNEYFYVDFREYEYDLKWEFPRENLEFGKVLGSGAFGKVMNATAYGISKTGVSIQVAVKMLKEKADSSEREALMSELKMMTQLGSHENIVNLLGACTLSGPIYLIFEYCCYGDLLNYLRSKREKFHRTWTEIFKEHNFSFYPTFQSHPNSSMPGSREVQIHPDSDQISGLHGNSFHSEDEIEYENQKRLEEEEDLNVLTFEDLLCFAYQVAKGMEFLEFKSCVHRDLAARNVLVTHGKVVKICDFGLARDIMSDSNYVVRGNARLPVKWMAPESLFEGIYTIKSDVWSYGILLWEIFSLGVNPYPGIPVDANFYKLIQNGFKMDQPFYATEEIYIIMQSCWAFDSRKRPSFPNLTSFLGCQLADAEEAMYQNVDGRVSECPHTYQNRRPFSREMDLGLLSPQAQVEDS

HT-29 [22] = test: Antiproliferative activity against human HT-29 cells assessed as reduction in cell proliferation at 0.37 ug/ml after 72 hrs by phase contrast microscopy; assay type: functional, cell-based
HT-29 [23] = test: Antiproliferative activity against human HT-29 cells assessed as increase in dead cell population at 10 ug/ml measured after 66 hrs by IncuCyte live-cell imaging analysis; assay type: functional, cell-based

Insulin-like growth factor 1 receptor, sequence (P08069 31-736 limits assumed): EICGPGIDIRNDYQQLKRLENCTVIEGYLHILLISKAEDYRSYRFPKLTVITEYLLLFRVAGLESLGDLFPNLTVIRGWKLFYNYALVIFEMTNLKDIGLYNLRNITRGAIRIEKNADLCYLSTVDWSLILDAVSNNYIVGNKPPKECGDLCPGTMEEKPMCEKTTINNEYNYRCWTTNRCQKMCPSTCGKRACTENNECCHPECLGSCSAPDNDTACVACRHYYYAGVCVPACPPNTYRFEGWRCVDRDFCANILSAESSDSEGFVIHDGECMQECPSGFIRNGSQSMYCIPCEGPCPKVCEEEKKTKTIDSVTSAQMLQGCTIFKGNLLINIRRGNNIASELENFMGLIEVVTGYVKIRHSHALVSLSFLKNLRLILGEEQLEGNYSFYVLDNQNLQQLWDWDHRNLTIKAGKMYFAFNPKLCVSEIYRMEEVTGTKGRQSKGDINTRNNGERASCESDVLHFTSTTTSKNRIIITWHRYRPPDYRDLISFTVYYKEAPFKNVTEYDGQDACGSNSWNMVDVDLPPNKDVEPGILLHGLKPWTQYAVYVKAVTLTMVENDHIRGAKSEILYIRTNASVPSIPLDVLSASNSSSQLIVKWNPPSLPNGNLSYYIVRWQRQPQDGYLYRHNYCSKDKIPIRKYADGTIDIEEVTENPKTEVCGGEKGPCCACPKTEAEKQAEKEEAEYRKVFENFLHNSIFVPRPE
Insulin-like growth factor 1 receptor, sequence (P08069 741-1367 limits assumed): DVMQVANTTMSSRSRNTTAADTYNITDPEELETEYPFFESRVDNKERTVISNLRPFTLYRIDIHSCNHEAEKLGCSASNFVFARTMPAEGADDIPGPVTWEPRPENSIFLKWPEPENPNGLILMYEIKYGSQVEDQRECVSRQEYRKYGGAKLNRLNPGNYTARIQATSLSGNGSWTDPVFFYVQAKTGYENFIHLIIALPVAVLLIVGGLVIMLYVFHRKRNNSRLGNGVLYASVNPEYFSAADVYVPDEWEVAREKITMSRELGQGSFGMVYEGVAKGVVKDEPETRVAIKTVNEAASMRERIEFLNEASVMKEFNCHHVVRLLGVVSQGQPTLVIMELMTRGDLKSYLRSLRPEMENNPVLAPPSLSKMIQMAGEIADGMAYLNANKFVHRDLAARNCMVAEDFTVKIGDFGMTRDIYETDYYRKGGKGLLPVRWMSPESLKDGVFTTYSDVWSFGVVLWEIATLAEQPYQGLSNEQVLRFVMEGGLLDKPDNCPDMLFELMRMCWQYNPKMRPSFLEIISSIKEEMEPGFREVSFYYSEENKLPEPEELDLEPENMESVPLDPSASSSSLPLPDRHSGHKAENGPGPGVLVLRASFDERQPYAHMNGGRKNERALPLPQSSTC
Vascular endothelial growth factor receptor 2, sequence (P35968 whole entry): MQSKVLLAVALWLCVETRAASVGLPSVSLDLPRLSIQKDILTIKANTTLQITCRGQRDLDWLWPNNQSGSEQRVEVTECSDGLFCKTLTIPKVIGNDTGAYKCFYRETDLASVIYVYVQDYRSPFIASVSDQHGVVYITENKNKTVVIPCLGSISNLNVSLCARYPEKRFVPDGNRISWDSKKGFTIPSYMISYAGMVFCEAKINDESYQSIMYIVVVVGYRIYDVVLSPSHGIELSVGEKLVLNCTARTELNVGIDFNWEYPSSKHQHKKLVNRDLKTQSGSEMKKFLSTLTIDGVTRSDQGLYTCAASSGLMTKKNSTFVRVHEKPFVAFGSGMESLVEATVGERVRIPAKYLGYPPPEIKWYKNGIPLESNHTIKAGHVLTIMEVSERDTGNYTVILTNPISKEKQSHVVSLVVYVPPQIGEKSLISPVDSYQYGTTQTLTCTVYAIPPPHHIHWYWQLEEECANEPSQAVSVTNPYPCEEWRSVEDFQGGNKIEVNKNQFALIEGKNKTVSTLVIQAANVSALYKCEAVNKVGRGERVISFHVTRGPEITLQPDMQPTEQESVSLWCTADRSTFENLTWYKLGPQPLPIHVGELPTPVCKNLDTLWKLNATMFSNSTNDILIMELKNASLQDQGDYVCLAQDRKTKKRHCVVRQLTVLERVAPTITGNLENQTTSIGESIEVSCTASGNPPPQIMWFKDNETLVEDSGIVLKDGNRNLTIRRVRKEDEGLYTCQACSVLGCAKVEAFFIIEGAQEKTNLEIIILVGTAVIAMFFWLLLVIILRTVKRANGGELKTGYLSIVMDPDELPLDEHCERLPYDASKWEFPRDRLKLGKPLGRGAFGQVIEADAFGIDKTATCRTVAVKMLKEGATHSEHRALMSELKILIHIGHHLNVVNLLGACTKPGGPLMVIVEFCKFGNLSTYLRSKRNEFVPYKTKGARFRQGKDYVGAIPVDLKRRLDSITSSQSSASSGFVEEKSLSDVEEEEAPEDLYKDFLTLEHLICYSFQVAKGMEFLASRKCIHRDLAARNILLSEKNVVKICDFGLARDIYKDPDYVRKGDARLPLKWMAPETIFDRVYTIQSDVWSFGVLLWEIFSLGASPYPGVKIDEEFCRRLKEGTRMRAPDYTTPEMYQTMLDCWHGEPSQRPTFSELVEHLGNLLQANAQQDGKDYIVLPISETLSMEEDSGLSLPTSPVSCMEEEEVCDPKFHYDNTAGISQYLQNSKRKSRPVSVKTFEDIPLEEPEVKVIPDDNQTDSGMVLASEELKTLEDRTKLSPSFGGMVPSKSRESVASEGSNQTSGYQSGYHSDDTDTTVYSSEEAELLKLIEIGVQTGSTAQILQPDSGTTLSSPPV
Epidermal growth factor receptor, sequence (P00533 whole entry): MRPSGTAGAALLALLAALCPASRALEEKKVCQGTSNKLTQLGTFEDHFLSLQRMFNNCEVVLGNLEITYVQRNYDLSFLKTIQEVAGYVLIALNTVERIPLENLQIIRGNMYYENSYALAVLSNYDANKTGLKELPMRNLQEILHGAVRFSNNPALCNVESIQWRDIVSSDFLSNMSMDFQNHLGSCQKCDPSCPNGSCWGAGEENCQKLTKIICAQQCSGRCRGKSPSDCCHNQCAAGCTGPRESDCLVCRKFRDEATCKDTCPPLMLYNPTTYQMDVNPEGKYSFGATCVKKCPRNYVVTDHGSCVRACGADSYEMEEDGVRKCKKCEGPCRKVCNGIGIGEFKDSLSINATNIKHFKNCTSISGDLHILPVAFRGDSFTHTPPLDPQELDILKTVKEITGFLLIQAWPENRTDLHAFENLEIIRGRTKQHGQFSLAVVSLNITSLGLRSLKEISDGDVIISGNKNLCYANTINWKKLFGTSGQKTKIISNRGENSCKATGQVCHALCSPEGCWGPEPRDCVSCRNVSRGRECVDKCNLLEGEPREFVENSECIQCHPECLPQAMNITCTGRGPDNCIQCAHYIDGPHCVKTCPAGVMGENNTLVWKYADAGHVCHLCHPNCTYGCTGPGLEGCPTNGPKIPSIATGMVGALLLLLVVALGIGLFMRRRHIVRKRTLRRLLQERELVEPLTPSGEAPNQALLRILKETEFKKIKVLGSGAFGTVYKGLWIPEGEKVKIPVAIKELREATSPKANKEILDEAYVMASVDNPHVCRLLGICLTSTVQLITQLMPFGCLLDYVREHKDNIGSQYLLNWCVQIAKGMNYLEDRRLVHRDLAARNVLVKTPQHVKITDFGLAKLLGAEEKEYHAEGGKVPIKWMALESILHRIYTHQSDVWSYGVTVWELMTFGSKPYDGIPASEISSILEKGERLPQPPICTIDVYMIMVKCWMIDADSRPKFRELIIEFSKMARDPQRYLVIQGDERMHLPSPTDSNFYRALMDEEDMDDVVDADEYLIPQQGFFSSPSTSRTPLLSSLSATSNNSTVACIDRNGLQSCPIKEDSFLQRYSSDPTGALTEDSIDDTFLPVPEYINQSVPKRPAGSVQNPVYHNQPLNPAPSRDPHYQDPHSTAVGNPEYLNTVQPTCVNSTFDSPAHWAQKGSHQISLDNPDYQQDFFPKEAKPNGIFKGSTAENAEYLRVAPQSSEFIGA
Mast/stem cell growth factor receptor Kit, sequence (P10721 whole entry): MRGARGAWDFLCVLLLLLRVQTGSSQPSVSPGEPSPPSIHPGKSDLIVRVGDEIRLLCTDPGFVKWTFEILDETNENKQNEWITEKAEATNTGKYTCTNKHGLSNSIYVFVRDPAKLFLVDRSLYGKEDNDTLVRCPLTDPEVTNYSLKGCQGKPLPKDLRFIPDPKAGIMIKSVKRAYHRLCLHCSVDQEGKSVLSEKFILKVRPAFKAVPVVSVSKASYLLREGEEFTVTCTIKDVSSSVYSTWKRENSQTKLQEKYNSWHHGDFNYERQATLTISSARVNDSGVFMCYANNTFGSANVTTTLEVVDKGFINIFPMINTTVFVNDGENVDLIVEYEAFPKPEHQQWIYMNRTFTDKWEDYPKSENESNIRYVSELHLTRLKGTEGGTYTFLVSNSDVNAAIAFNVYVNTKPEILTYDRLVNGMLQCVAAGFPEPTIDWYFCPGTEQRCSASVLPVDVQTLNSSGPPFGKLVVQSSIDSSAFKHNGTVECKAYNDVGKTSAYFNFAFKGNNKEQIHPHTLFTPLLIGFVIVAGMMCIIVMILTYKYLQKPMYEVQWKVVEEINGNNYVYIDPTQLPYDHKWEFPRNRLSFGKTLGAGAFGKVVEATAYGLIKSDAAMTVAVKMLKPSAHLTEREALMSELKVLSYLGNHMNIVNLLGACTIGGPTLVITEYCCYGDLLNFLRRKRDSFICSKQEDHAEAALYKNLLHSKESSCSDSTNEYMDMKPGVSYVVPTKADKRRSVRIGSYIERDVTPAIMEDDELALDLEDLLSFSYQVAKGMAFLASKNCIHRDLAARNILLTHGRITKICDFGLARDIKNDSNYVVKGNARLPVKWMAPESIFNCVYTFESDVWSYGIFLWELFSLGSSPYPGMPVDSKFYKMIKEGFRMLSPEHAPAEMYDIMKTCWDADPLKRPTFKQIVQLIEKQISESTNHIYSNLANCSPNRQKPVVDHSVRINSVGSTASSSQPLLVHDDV

| Structure (SMILES) | IC50 (A549) [µM] | IC50 (HT-29 [1]) [µM] | further results |
| --- | --- | --- | --- |
| COc1cc2c(Oc3ccc(C4SCC(=O)N4NC(=O)Nc4ccccc4)cc3)ccnc2cc1OCCCN1CCOCC1 (stereo unspecified) | 8.7 | 5.2 | – |
| COc1cc2c(Oc3ccc(C4SCC(=O)N4NC(=O)Nc4ccc(F)cc4F)c(F)c3)ccnc2cc1OCCCN1CCOCC1 (stereo unspecified) | 4.6 | 1.3 | – |
| COc1cc2c(Oc3ccc(C4SCC(=O)N4NC(=O)Nc4cccc(Cl)c4)cc3)ccnc2cc1OCCCN1CCOCC1 (stereo unspecified) | 8.9 | 7.7 | – |
| COc1cc2c(Oc3ccc(C4SCC(=O)N4NC(=O)Nc4ccc(F)cc4F)cc3F)ccnc2cc1OCCCN1CCN(C)CC1 (stereo unspecified) | 0.65 | 0.11 | Activity (HT-29 [2]): 56.6%; Activity (HT-29 [3]): Active; Activity (HT-29 [4]): Active; IC50 [5]: 0.4 µM; Activity (HT-29 [6]): 69.4%; Activity (HT-29 [7]): Active; Activity (HT-29 [8]): Active; Activity (HT-29 [9]): Dose-dependent effect; Activity (HT-29 [10]): Dose-dependent effect; Ratio (HT-29 [11]): >10; Activity (HT-29 [12]): Active; Activity (HT-29 [13]): 65.5%; IC50 [14]: 6.66 µM; Activity (HT-29 [15]): 62%; Activity (HT-29 [16]): Dose-dependent effect; Activity (HT-29 [17]): Dose-dependent effect; IC50 [18]: 0.0187 µM; IC50 [19]: 0.352 µM; IC50 [20]: 0.383 µM; IC50 [21]: 0.0086 µM |
| COc1cc2c(Oc3ccc(C4SCC(=O)N4NC(=O)Nc4ccc(Cl)cc4)cc3)ccnc2cc1OCCCN1CCOCC1 (stereo unspecified) | 6.7 | 6.6 | – |
| COc1cc2c(Oc3ccc(C4SCC(=O)N4NC(=O)Nc4ccc(F)cc4F)cc3)ccnc2cc1OCCCN1CCOCC1 (stereo unspecified) | 6 | 2.3 | – |
| COc1cc2c(Oc3ccc(C4SCC(=O)N4NC(=O)Nc4ccc(F)cc4F)c(Cl)c3)ccnc2cc1OCCCN1CCOCC1 (stereo unspecified) | 6.1 | 2.8 | – |
| COc1cc2c(Oc3ccc(C4SCC(=O)N4NC(=O)Nc4ccc(F)cc4F)cc3Cl)ccnc2cc1OCCCN1CCOCC1 (stereo unspecified) | 6.7 | 2.4 | – |
| COc1cc2nccc(Oc3ccc(NC(=O)C4(C(=O)Nc5ccc(F)cc5)CC4)cc3)c2cc1OC [CABOZANTINIB] | 8.5 | – | Activity (HT-29 [22]): Active; Activity (HT-29 [4]): Active; Activity (HT-29 [23]): Active; Activity (HT-29 [8]): Active |
| COc1cc2c(Oc3ccc(C4SCC(=O)N4NC(=O)Nc4ccccc4Cl)cc3)ccnc2cc1OCCCN1CCOCC1 (stereo unspecified) | 8.5 | 6.5 | – |
| COc1cc2c(Oc3ccc(C4SCC(=O)N4NC(=O)Nc4ccc(F)cc4F)cc3F)ccnc2cc1OCCCN1CCCN(C)CC1 (stereo unspecified) | 0.71 | 0.18 | – |
| COc1cc2c(Oc3ccc(C4SCC(=O)N4NC(=O)Nc4cc(F)cc(F)c4)cc3)ccnc2cc1OCCCN1CCOCC1 (stereo unspecified) | 6.1 | 4.9 | – |
| COc1cc2c(Oc3ccc(C4SCC(=O)N4NC(=O)Nc4ccc(F)c(F)c4F)cc3)ccnc2cc1OCCCN1CCOCC1 (stereo unspecified) | 5.5 | 4.4 | – |
| COc1cc2c(Oc3ccc(C4SCC(=O)N4NC(=O)Nc4ccc(F)cc4)cc3)ccnc2cc1OCCCN1CCOCC1 (stereo unspecified) | 4.9 | 4.8 | – |
| COc1cc2c(Oc3ccc(C4SCC(=O)N4NC(=O)Nc4ccccc4F)cc3)ccnc2cc1OCCCN1CCOCC1 (stereo unspecified) | 7 | – | – |
| COc1cc2c(Oc3ccc(C4SCC(=O)N4NC(=O)Nc4ccc(F)cc4F)cc3F)ccnc2cc1OCCCN1CCOCC1 (stereo unspecified) | 2.1 | 0.86 | – |
| CCN1CCN(CCCOc2cc3nccc(Oc4ccc(C5SCC(=O)N5NC(=O)Nc5ccc(F)cc5F)cc4F)c3cc2OC)CC1 (stereo unspecified) | 1 | 0.32 | – |

Source: ChEMBL document CHEMBL4392844 (Bioorg Med Chem, 2019)
